In ChEMBL document CHEMBL1130929, “Conformationally restricted analogues of nicotine and anabasine” (Bioorg Med Chem Lett, 1998):
pEC50, pIC50: −log10 of the molar value.

Key:
Rattus norvegicus [1] = species: Rattus norvegicus; assay: In vitro ability to release dopamine from rat striatal slices; assay type: functional
[2] = In vitro ability to displace tritiated nicotine from rat brain binding sites, and calcium flux (c.f)
[3] = target: T1, Neuronal acetylcholine receptor; alpha2/beta4 (Homo sapiens, UniProt P30926+Q15822); assay: (§1) Compound was evaluated for agonist activity against activated human recombinant Nicotinic acetylcholine receptor alpha2-beta4 in Xenopus Oocytes; assay type: functional, cell-based
[4] = target: T1, Neuronal acetylcholine receptor; alpha2/beta4; assay: as §1; assay type: functional, cell-based; remark: listed apart in the source
[5] = In vitro agonist activity against activated human recombinant alpha3-beta4 neuronal acetylcholine receptors (nAChR) in Xenopus Oocytes; assay type: functional, cell-based
[6] = target: Neuronal acetylcholine receptor; alpha3/beta4 (Homo sapiens) (UniProt P30926+P32297); assay: In vitro agonist activity against activated human recombinant Nicotinic acetylcholine receptor alpha3-beta4 in Xenopus Oocytes; assay type: functional, cell-based
[7] = target: T2, Neuronal acetylcholine receptor; alpha4/beta4 (Homo sapiens, UniProt P30926+P43681); assay: Compound was evaluated for its agonist activity against activated human recombinant Nicotinic acetylcholine receptor alpha4-beta4 in Xenopus Oocytes; assay type: functional, cell-based
[8] = In vitro ability to displace tritiated nicotine from rat brain binding sites
[9] = target: T3, Neuronal acetylcholine receptor; alpha4/beta2 (Homo sapiens, UniProt P17787+P43681); assay: Compound was evaluated for agonist activity against activated human recombinant aNicotinic acetylcholine receptor alpha4-beta2 in Xenopus Oocytes; assay type: functional, cell-based
[10] = target: T3, Neuronal acetylcholine receptor; alpha4/beta2; assay: Compound was evaluated for agonist activity against activated human recombinant Nicotinic acetylcholine receptor alpha4-beta2 in Xenopus Oocytes; assay type: functional, cell-based
Rattus norvegicus [11] = species: Rattus norvegicus; assay: Compound was tested for its ability to release dopamine from rat striatal slices at 300 uM; assay type: functional
[12] = target: T2, Neuronal acetylcholine receptor; alpha4/beta4; assay: Compound was evaluated for agonist activity against activated human recombinant Nicotinic acetylcholine receptor alpha4-beta4 in Xenopus Oocytes; assay type: functional, cell-based

T1 sequence (P30926 whole entry): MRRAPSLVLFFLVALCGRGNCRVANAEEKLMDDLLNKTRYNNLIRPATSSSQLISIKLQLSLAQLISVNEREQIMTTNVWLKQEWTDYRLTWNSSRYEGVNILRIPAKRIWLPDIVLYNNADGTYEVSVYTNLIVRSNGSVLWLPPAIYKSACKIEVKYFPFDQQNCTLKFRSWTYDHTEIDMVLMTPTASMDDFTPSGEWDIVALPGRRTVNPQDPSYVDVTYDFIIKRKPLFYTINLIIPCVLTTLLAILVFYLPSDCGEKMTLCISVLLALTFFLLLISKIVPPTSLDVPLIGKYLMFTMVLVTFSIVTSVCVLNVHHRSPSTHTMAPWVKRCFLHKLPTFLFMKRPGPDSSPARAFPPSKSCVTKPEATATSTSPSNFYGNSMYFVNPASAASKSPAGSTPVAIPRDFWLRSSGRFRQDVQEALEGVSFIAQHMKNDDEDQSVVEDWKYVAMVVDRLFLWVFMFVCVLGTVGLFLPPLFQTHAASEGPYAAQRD
T1 sequence (Q15822 whole entry): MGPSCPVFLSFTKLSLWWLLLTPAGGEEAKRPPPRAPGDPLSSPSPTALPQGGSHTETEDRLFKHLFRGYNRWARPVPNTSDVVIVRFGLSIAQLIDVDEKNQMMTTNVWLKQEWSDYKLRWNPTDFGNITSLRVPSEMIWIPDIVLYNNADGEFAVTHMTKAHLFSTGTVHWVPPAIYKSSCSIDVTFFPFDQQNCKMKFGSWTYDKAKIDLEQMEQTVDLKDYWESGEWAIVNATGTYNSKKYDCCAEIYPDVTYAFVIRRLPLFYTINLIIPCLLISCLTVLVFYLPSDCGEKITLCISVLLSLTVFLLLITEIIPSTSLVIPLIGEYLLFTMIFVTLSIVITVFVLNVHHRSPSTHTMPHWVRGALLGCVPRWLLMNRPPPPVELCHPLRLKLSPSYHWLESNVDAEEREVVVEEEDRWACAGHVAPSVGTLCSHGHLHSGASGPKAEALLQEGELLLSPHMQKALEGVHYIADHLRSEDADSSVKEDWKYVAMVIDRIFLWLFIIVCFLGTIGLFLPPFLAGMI
T2 sequence (P30926 whole entry): as the sequence (P30926 whole entry) above
T2 sequence (P43681 whole entry): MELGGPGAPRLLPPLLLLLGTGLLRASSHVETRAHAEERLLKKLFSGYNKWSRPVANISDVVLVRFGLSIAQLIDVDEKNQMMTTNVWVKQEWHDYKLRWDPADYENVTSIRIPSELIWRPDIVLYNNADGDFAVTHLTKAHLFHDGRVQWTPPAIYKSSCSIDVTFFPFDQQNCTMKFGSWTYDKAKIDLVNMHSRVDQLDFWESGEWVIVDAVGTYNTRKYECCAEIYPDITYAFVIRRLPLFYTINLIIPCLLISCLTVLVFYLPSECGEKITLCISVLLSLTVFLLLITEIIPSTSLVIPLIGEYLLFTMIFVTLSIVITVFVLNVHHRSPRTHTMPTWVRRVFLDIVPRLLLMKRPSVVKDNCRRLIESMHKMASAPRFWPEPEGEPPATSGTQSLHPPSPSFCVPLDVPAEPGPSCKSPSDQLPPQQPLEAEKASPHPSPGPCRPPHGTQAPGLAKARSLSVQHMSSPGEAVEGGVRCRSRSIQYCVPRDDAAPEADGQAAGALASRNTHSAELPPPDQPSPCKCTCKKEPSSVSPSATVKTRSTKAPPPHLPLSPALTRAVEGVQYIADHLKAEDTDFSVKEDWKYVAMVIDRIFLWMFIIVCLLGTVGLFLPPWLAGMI
T3 sequence (P17787 whole entry): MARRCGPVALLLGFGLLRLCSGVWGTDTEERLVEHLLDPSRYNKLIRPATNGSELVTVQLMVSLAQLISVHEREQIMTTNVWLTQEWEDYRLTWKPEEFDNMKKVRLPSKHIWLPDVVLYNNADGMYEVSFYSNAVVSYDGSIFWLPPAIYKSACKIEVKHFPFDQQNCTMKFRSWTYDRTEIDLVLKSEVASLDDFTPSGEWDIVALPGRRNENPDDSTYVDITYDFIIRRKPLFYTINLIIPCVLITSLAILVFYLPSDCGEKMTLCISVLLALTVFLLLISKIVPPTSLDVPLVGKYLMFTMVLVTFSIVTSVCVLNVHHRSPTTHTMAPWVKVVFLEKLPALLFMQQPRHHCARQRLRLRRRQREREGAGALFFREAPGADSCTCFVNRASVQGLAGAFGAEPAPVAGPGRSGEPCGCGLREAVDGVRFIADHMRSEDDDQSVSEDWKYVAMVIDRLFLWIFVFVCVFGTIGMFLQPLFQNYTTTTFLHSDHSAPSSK
T3 sequence (P43681 whole entry): as the sequence (P43681 whole entry) above

SMILES: c1cc2c(cn1)C1NCCC1CC2 (stereo not drawn)
- Efficacy (Rattus norvegicus [1]): 56%
- pIC50 [2]: 6.29

SMILES: COc1cc2c(cn1)C1NCCC1CC2 (stereo not drawn)
- pEC50 [3]: 4.06
- Efficacy [4]: 22%
- pEC50 [5]: 4.09
- Efficacy [6]: 5%
- pEC50 [7]: 4.49
- pIC50 [8]: 5.72
- pEC50 [9]: 5.52
- Efficacy [10]: 8%
- Efficacy (Rattus norvegicus [11]): 73
- Efficacy [12]: 44%

SMILES: CN1CCC[C@H]1c1cccnc1 [NICOTINE]
- pIC50 [2]: 8.40
